ChEMBL document CHEMBL1201862, “PubChem BioAssay data set” (2004)
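Each compound was tested at five concentrations against cells in 96-well plates for 48 hours. Here, GI50 denotes the concentration required for 50% inhibition of growth.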 The source made the active and inactive calls. Rule as the data show it: active = GI50 up to about 1.1 µM and inactive = higher.

Columns and labels:
Experiment in all cases: NCI tumour cell line growth inhibition, 48 h
[1] = tested on: Malme-3M
[2] = tested on: OVCAR-5
[3] = tested on: M14
[4] = tested on: MDA-MB-435
[5] = tested on: K562
[6] = tested on: DU-145
[7] = tested on: NCI-H23
[8] = tested on: RPMI-8226
[9] = tested on: OVCAR-3
[10] = tested on: SN12C
[11] = tested on: MCF7
[12] = tested on: RXF 393
[13] = tested on: EKVX
[14] = tested on: UACC-257
[15] = tested on: PC-3
[16] = tested on: CCRF-CEM
[17] = tested on: UO-31
[18] = tested on: Hs-578T
[19] = tested on: SW-620
[20] = tested on: OVCAR-8

Measured: GI50

COC(=O)[C@@H]1c2c(oc3cc(CO)cc(O)c3c2=O)C=C[C@H]1O
inactive: [1] 1.74 µM | [2] 9.51 µM | [3] 5.97 µM | [4] 4.15 µM | [5] 3.28 µM | [6] 3.24 µM | [7] 19 µM | [8] 2.49 µM | [9] 8.02 µM | [10] 9.86 µM | [11] 2.86 µM | [12] 2.8 µM | [13] 13.3 µM | [14] 8.85 µM | [15] 7.18 µM | [16] 1.69 µM | [17] 3.78 µM | [18] 24.7 µM | [19] 3.11 µM | [20] 5.56 µM

CC(=O)O[C@H]1C[C@H]2[C@@H](OC(C)=O)/C=C3\C[C@](C)(C(=O)[C@H](O)C(=C1C)C2(C)C)[C@@H](O)C[C@@H]3OC(=O)[C@H](O)[C@H](c1ccccc1)N(C)C
inactive: [1] > 100 µM | [2] > 100 µM | [3] > 100 µM | [4] > 100 µM | [5] > 100 µM | [6] > 100 µM | [7] > 100 µM | [8] > 100 µM | [9] > 100 µM | [10] > 100 µM | [11] > 100 µM | [12] > 100 µM | [13] > 100 µM | [14] > 100 µM | [15] > 100 µM | [16] > 100 µM | [17] > 100 µM | [18] > 100 µM | [19] > 100 µM | [20] > 100 µM

CC(=O)NNC1=NN(C(C)=O)C2(S1)C(=O)Nc1ccc(Br)cc12 (stereo not drawn)
inactive: [1] > 100 µM | [2] > 100 µM | [3] > 100 µM | [4] > 100 µM | [5] > 100 µM | [6] > 100 µM | [7] > 100 µM | [8] > 100 µM | [9] > 100 µM | [10] > 100 µM | [11] > 100 µM | [12] > 100 µM | [13] > 100 µM | [14] > 100 µM | [15] > 100 µM | [16] > 100 µM | [17] 39.4 µM | [18] > 100 µM | [20] > 100 µM

COC(=O)[C@@H](Cc1ccccc1)N1O[C@]12CCCC[C@@H]2NC(=O)OC(C)(C)C (stereo partly drawn)
inactive: [1] 22.1 µM | [2] 25.1 µM | [3] 19.1 µM | [4] 25.8 µM | [5] 40.1 µM | [6] 29.4 µM | [7] 21.3 µM | [8] 44.5 µM | [9] 21.9 µM | [10] 32.3 µM | [11] 15.2 µM | [12] 25 µM | [13] 27.9 µM | [14] 36.4 µM | [15] 25.6 µM | [16] 14.7 µM | [17] 14.5 µM | [18] 21.6 µM | [19] 15.8 µM

CC1=CC[C@H](C(C)C)C(C(O)[C@@H](C)O[Si](c2ccccc2)(c2ccccc2)C(C)(C)C)C1=O (stereo partly drawn)
inactive: [1] 28.8 µM | [2] 18.9 µM | [3] 15.3 µM | [4] 21.4 µM | [5] 9.93 µM | [6] 21.4 µM | [7] 16.6 µM | [8] 9.73 µM | [9] 17 µM | [10] 17.9 µM | [11] 15.8 µM | [12] 13.5 µM | [13] 13.3 µM | [14] 12.1 µM | [15] 14 µM | [16] 19.5 µM | [17] 15.2 µM | [18] 28 µM | [19] 18.9 µM | [20] 22.8 µM
